In patent publication US11897904B2, “Herbicidally active bicyclic benzamides” (Bayer Aktiengesellschaft, priority 2017, dated 2024):

Key:
ABUTH [1] = experiment: Pre-emergence herbicidal action; assay type: in vivo, Abutilon theophrasti; details: pre-emergence, scored visually after about 3 weeks vs untreated controls
Excerpt: (§1) 1. Pre-Emergence Herbicidal Action and Crop Plant Compatibility
(§2) Seeds of monocotyledonous and dicotyledonous weed plants and crop plants are placed in plastic or organic planting pots and covered with soil. The compounds of the invention, formulated in the form of wettable powders (WP) or as emulsion concentrates (EC), are then applied onto the surface of the covering soil as aqueous suspension or emulsion with addition of 0.5% additive at a water application rate of 600 l/ha (converted). After the treatment, the pots are placed in a greenhouse and kept under good growth conditions for the trial plants. After about 3 weeks, the effect of the preparations is scored visually in comparison with untreated controls as percentages. The tables below show the herbicidal activity of numerous compounds according to the invention against important harmful plants. For example, 100% activity=the plants have died, 0% activity=like control plants.

ABUTH [2] = experiment: Post-emergence herbicidal action; assay type: in vivo, Abutilon theophrasti; details: post-emergence, rated visually after about 3 weeks vs untreated controls
Procedure: (§3) 2. Post-Emergence Herbicidal Action and Crop Plant Compatibility
(§4) Seeds of monocotyledonous and dicotyledonous weeds and crop plants are placed in sandy loam in plastic or organic planting pots, covered with soil and cultivated in a greenhouse under controlled growth conditions. 2 to 3 weeks after sowing, the test plants are treated at the one-leaf stage. The compounds of the invention, formulated in the form of wettable powders (WP) or as emulsion concentrates (EC), are then sprayed onto the green parts of the plants as aqueous suspension or emulsion with addition of 0.5% additive at a water application rate of […] (converted). After the test plants had been kept in the greenhouse under optimum growth conditions for about 3 weeks, the activity of the preparations is rated visually in comparison to untreated controls. The tables below show the herbicidal activity of numerous compounds according to the invention against important harmful plants. For example, 100% activity=the plants have died, 0% activity=like control plants.

AMARE [3] = experiment: Pre-emergence herbicidal action; assay type: in vivo, Amaranthus retroflexus; details: scored visually after about 3 weeks vs untreated controls
Excerpt: as §1, §2

VERPE [4] = experiment: Post-emergence herbicidal action; assay type: in vivo, Veronica persica; details: rated visually after about 3 weeks vs untreated controls
Procedure: as §3, §4

VERPE [5] = experiment: Pre-emergence herbicidal action; assay type: in vivo, Veronica persica; details: scored visually after about 3 weeks vs untreated controls
Excerpt: as §1, §2

VIOTR [6] = experiment: Pre-emergence herbicidal action; assay type: in vivo, Viola tricolor; details: scored visually after about 3 weeks vs untreated controls
Excerpt: as §1, §2

SETVI [7] = experiment: Post-emergence herbicidal action; assay type: in vivo, Setaria viridis; details: rated visually after about 3 weeks vs untreated controls
Procedure: as §3, §4

ECHCG [8] = experiment: Post-emergence herbicidal action; assay type: in vivo, Echinochloa crus-galli; details: rated visually after about 3 weeks vs untreated controls
Procedure: as §3, §4

AMARE [9] = experiment: Post-emergence herbicidal action; assay type: in vivo, Amaranthus retroflexus; details: rated visually after about 3 weeks vs untreated controls
Procedure: as §3, §4

STEME [10] = experiment: Post-emergence herbicidal action; assay type: in vivo, Stellaria media; details: rated visually after about 3 weeks vs untreated controls
Procedure: as §3, §4

SETVI [11] = experiment: Pre-emergence herbicidal action; assay type: in vivo, Setaria viridis; details: pre-emergence, 320 g/ha, scored visually after about 3 weeks vs untreated controls
Excerpt: as §1, §2

PHBPU = experiment: Post-emergence herbicidal action; assay type: in vivo, Ipomoea purpurea; details: rated visually after about 3 weeks vs untreated controls
Procedure: as §3, §4

MATIN [12] = experiment: Post-emergence herbicidal action; assay type: in vivo, Matricaria inodora; details: 80 g/ha, rated visually after about 3 weeks vs untreated controls
Procedure: as §3, §4

STEME [13] = experiment: Pre-emergence herbicidal action; assay type: in vivo, Stellaria media; details: scored visually after about 3 weeks vs untreated controls
Excerpt: as §1, §2

MATIN [14] = experiment: Pre-emergence herbicidal action; assay type: in vivo, Matricaria inodora; details: pre-emergence, scored visually after about 3 weeks vs untreated controls
Excerpt: as §1, §2

VIOTR [15] = experiment: Post-emergence herbicidal action; assay type: in vivo, Viola tricolor; details: rated visually after about 3 weeks vs untreated controls
Procedure: as §3, §4

ECHCG [16] = experiment: Pre-emergence herbicidal action; assay type: in vivo, Echinochloa crus-galli; details: 320 g/ha, scored visually after about 3 weeks vs untreated controls
Excerpt: as §1, §2

CYPES = experiment: Pre-emergence herbicidal action; assay type: in vivo, Cyperus esculentus; details: dosage 320 g/ha, scored visually after about 3 weeks vs untreated controls, 100% = plants have died, 0% = like control plants
Excerpt: as §1, §2

SMILES	herbicidal activity ABUTH (ABUTH [2]; 20 g/ha)	herbicidal activity ABUTH (ABUTH [2]; 80 g/ha)	herbicidal activity STEME (STEME [10]; 80 g/ha)	herbicidal activity VERPE (VERPE [4]; 80 g/ha)	herbicidal activity VERPE (VERPE [5]; 320 g/ha)	herbicidal activity AMARE (AMARE [9]; 80 g/ha)	herbicidal activity AMARE (AMARE [3]; 320 g/ha)	herbicidal activity MATIN (MATIN [12])	herbicidal activity MATIN (MATIN [14]; 320 g/ha)	herbicidal activity VIOTR (VIOTR [15]; 80 g/ha)	herbicidal activity VIOTR (VIOTR [15]; 20 g/ha)	further results
COC1Oc2c(C(=O)Nc3nnnn3C)ccc(C(F)(F)F)c2S1 (stereo not shown) [Example 2-112, 2-methoxy-4-(trifluoromethyl)-1,3-benzoxathiolane-N-(1-methyltetrazol-5-yl)-7-carboxamide]	90%											herbicidal activity ABUTH (ABUTH [1]; 80 g/ha): 100%; herbicidal activity AMARE (AMARE [3]; 80 g/ha): 90%; herbicidal activity VERPE (VERPE [4]; 20 g/ha): 80%; herbicidal activity VERPE (VERPE [5]; 80 g/ha): 80%; herbicidal activity VIOTR (VIOTR [6]; 80 g/ha): 100%; herbicidal activity SETVI (SETVI [7]; 20 g/ha): 80%; herbicidal activity ECHCG (ECHCG [8]; 20 g/ha): 80%; herbicidal activity AMARE (AMARE [9]; 20 g/ha): 80%
CSc1ccc(C(=O)Nc2nnnn2C)c2c1OC(F)(F)O2 [Example 2-13]		80%	80%	90%	90%	80%						
Cn1nnnc1NC(=O)c1ccc(C(F)F)c2c1OCS2(=O)=O [Example 2-84]		90%	100%	100%	100%	100%	100%	100%	100%	100%		herbicidal activity SETVI (SETVI [11]): 90%; herbicidal activity ABUTH (ABUTH [1]; 320 g/ha): 90%; herbicidal activity PHBPU (PHBPU; 80 g/ha): 90%; herbicidal activity STEME (STEME [13]; 320 g/ha): 90%; herbicidal activity VIOTR (VIOTR [6]; 320 g/ha): 100%; herbicidal activity SETVI (SETVI [7]; 80 g/ha): 100%; herbicidal activity ECHCG (ECHCG [8]; 80 g/ha): 90%
Cn1nnnc1NC(=O)c1ccc(S(C)(=O)=O)c2c1OCS2 [Example 2-58]	80%											herbicidal activity AMARE (AMARE [9]; 20 g/ha): 80%
Cn1nnnc1NC(=O)c1ccc(C(F)F)c2c1OC[S+]2[O-] (stereo not shown) [Example 2-69]		90%	100%	90%	90%	90%	100%	90%	90%	100%		herbicidal activity SETVI (SETVI [11]): 90%; herbicidal activity ABUTH (ABUTH [1]; 320 g/ha): 100%; herbicidal activity ECHCG (ECHCG [16]): 90%; herbicidal activity PHBPU (PHBPU; 80 g/ha): 80%; herbicidal activity STEME (STEME [13]; 320 g/ha): 90%; herbicidal activity VIOTR (VIOTR [6]; 320 g/ha): 100%; herbicidal activity SETVI (SETVI [7]; 80 g/ha): 80%; herbicidal activity ECHCG (ECHCG [8]; 80 g/ha): 100%
Cn1ncnc1NC(=O)c1ccc(C(F)(F)F)c2c1OC[S+]2[O-] (stereo not shown) [Example 1-50]	80%										80%	herbicidal activity MATIN (MATIN [14]; 80 g/ha): 90%; herbicidal activity AMARE (AMARE [9]; 20 g/ha): 80%
Cn1nnnc1NC(=O)c1ccc(C(F)F)c2c1SCS2 [Example 2-22]											100%	herbicidal activity PHBPU (PHBPU; 20 g/ha): 80%
CCn1nnnc1NC(=O)c1ccc(C(F)(F)F)c2c1OCS2 [Example 3-52]		80%	100%	100%	80%	100%	100%	90%	90%	100%		herbicidal activity SETVI (SETVI [11]): 90%; herbicidal activity ABUTH (ABUTH [1]; 320 g/ha): 90%; herbicidal activity ECHCG (ECHCG [16]): 90%; herbicidal activity PHBPU (PHBPU; 80 g/ha): 100%; herbicidal activity STEME (STEME [13]; 320 g/ha): 100%; herbicidal activity VIOTR (VIOTR [6]; 320 g/ha): 90%; herbicidal activity SETVI (SETVI [7]; 80 g/ha): 100%; herbicidal activity ECHCG (ECHCG [8]; 80 g/ha): 100%
Cc1ccc(C(=O)Nc2nnnn2C)c2c1[S+]([O-])CO2 (stereo not shown) [Example 2-65]					80%		90%					herbicidal activity CYPES (CYPES): 90%
Cn1nnnc1NC(=O)c1ccc(C(F)(F)F)c2c1SC[S+]2[O-] (stereo not shown) [Example 2-255]											80%	herbicidal activity STEME (STEME [10]; 20 g/ha): 80%
CCOC1Oc2c(C(=O)Nc3nnnn3C)ccc(C(F)(F)F)c2S1 (stereo not shown) [Example 2-130]	90%										90%	herbicidal activity ABUTH (ABUTH [1]; 80 g/ha): 100%; herbicidal activity STEME (STEME [13]; 80 g/ha): 100%; herbicidal activity VIOTR (VIOTR [6]; 80 g/ha): 100%
Cc1ccc(C(=O)Nc2nnnn2C)c2c1S(=O)(=O)CO2 [Example 2-80]			90%			90%	90%	80%	80%	90%		
